Measurements published in ChEMBL document CHEMBL3632485 (Eur J Med Chem, 2015).

Tests used:
[1] = biological target: Carbonic anhydrase 9 (Homo sapiens, UniProt Q16790)
Description: Inhibition of human recombinant carbonic anhydrase 9 expressed in Escherichia coli preincubated for 6 hrs by stopped flow CO2 hydrase assay

[2] = biological target: Carbonic anhydrase 2 (Homo sapiens, UniProt P00918); experiment: Inhibition of human recombinant carbonic anhydrase 2 expressed in Escherichia coli preincubated for 6 hrs by stopped flow CO2 hydrase assay
[3] = biological target: Carbonic anhydrase 12 (Homo sapiens, UniProt O43570); experiment: Inhibition of human recombinant carbonic anhydrase 12 expressed in Escherichia coli preincubated for 6 hrs by stopped flow CO2 hydrase assay
[4] = biological target: Carbonic anhydrase 1 (Homo sapiens, UniProt P00915); experiment: Inhibition of human recombinant carbonic anhydrase 1 expressed in Escherichia coli preincubated for 6 hrs by stopped flow CO2 hydrase assay
Carbonic anhydrase 1, sequence (P00915 whole entry): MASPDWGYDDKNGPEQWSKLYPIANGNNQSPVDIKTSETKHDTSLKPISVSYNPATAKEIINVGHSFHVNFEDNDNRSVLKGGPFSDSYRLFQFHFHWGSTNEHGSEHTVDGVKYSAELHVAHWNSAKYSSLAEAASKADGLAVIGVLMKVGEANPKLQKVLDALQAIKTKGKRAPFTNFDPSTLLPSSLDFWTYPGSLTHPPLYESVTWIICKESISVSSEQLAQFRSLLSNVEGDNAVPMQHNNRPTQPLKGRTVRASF

Carbonic anhydrase 12, sequence (O43570 whole entry): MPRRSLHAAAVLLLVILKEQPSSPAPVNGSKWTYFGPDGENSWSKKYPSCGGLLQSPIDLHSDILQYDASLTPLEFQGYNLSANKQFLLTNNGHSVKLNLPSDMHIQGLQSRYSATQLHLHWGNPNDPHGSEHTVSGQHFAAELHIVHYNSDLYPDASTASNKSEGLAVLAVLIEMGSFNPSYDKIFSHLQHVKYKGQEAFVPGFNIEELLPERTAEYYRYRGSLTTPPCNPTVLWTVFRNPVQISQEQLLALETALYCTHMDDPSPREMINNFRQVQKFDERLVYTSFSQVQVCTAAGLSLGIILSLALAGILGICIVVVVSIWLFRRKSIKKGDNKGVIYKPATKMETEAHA

Row | Compound | Ki [1] [nM] | other results
1 | NS(=O)(=O)c1ccc(-n2nc(C(=O)N/N=C3\C(=O)Nc4ccc(Cl)cc43)cc2-c2ccccc2)cc1 | 7.4 | –
2 | NS(=O)(=O)c1ccc(-n2nc(C(=O)N/N=C3\C(=O)Nc4ccccc43)cc2-c2ccccc2)cc1 | 8.8 | –
3 | NS(=O)(=O)c1ccc(-n2nc(C(=O)N/N=C3\C(=O)Nc4ccc(Br)cc43)cc2-c2ccccc2)cc1 | 20 | –
4 | Cc1ccc2c(c1)/C(=N/NC(=O)c1cc(-c3ccccc3)n(-c3ccc(S(N)(=O)=O)cc3)n1)C(=O)N2 | 4.7 | –
5 | Nc1c(C(=O)N/N=C2\C(=O)Nc3ccc([N+](=O)[O-])cc32)cnn1-c1ccc(S(N)(=O)=O)cc1 | 7.4 | Ki [2]: 23.1 nM; Ki [3]: 5.4 nM; Ki [4]: 70.4 nM
6 | Nc1c(C(=O)N/N=C2\C(=O)Nc3ccc(Cl)cc32)cnn1-c1ccc(S(N)(=O)=O)cc1 | 2.5 | –
7 | Nc1c(C(=O)N/N=C2\C(=O)Nc3ccccc32)cnn1-c1ccc(S(N)(=O)=O)cc1 | 2.8 | –
8 | NS(=O)(=O)c1ccc(-n2ncc(C(=O)N/N=C3\C(=O)Nc4ccccc43)c2-c2ccccc2)cc1 | 52.9 | –
9 | NS(=O)(=O)c1ccc(-n2ncc(C(=O)N/N=C3\C(=O)N(Cc4ccccc4)c4ccccc43)c2-c2ccccc2)cc1 | – | Ki [3]: 6.5 nM
10 | COc1ccc2c(c1)/C(=N/NC(=O)c1cnn(-c3ccc(S(N)(=O)=O)cc3)c1N)C(=O)N2 | 3.5 | –
11 | NS(=O)(=O)c1ccc(-n2ncc(C(=O)N/N=C3\C(=O)Nc4ccc(Cl)cc43)c2-c2ccccc2)cc1 | 9.7 | –
12 | NS(=O)(=O)c1ccc(-n2ncc(C(=O)N/N=C3\C(=O)Nc4ccc(Br)cc43)c2-c2ccccc2)cc1 | 7.8 | –
13 | Nc1c(C(=O)N/N=C2\C(=O)Nc3ccc(Br)cc32)cnn1-c1ccc(S(N)(=O)=O)cc1 | 9.4 | –
14 | NS(=O)(=O)c1ccc(-n2ncc(C(=O)N/N=C3\C(=O)Nc4ccc([N+](=O)[O-])cc43)c2-c2ccccc2)cc1 | 15.7 | –
